Data as given in ChEMBL document CHEMBL1133405, “Design and synthesis of functionalized glycomers as non-peptidic ligands for SH2 binding and as inhibitors of A-431 human epidermoid and HT-29 colon carcinoma cell lines” (Bioorg Med Chem Lett, 2000).

How the values were obtained:
HT-29 = assay: Cytotoxicity of compound was measured for the growth inhibition of HT-29 human colon carcinoma cell line; assay type: functional, cell-based
A-431 = assay: Cytotoxicity measured for the growth inhibition of A-431 Human epidermoid carcinoma cell line; assay type: functional, cell-based
[1] = target: Growth factor receptor-bound protein 2 (Homo sapiens) (UniProt P62993); assay: Compound was evaluated for the inhibitory activity against Growth factor receptor bound protein 2 SH2 at a concentration of 100 uM
Sequence of Growth factor receptor-bound protein 2 (Homo sapiens) (P62993 whole entry, looked up): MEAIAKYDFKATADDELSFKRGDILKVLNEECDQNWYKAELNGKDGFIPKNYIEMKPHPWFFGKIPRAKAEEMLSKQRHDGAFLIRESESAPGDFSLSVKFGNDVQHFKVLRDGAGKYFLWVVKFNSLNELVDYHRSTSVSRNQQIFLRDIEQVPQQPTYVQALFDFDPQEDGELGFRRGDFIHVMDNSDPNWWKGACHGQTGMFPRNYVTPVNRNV

Row | SMILES | IC50 (HT-29) [µM] | IC50 (A-431) [µM] | inhibition [1] [%]
1 | C=CCO[C@@H]1[C@H](O)[C@H](Oc2ccc(I)cc2)O[C@@H](COS(=O)(=O)c2cccc(C(F)(F)F)c2)[C@H]1O | 35.5 | 36.8 | –
2 | O=C(CCc1ccccc1)O[C@@H]1[C@H](Oc2ccc(I)cc2)O[C@@H](COS(=O)(=O)c2cccc(C(F)(F)F)c2)[C@@H](O)[C@@H]1OCCOC(=O)Nc1ccccc1 | 7.15 | 4.52 | 30
3 | C=CCO[C@H]1[C@H](O)[C@H](COS(=O)(=O)c2ccc(Cl)cc2)O[C@@H](Oc2ccc(I)cc2)[C@H]1OC(C)=O | – | 9.77 | –
4 | C=CCO[C@H]1[C@H](O)[C@H](COS(=O)(=O)c2cccc(C(F)(F)F)c2)O[C@H](Oc2ccc(I)cc2)[C@@H]1OC(=O)CCC | 4 | 2.6 | –
5 | C=CCO[C@H]1[C@H](O)[C@H](COS(=O)(=O)c2cccc(C(F)(F)F)c2)O[C@@H](Oc2ccc(I)cc2)[C@H]1OC(=O)CCc1ccccc1 | 3 | 2 | –
6 | C=CCO[C@H]1[C@H](O)[C@H](COS(=O)(=O)c2cccc(C(F)(F)F)c2)O[C@@H](Oc2ccc(I)cc2)[C@H]1OC(=O)CC | 4.65 | 2.17 | –
7 | C=CCO[C@@H]1[C@H](O)[C@H](Oc2ccc(I)cc2)O[C@@H](COC(=O)c2ccccc2)[C@H]1O | > 50 | > 50 | –
8 | C=CCO[C@@H]1[C@H](O)[C@H](Oc2ccc(I)cc2)O[C@@H](COC(=O)c2ccc(OC)cc2)[C@H]1O | 55.1 | 24.6 | –
9 | C=CCO[C@@H]1[C@H](O)[C@H](Oc2ccc(I)cc2)O[C@@H](COCc2ccc(OC)cc2)[C@H]1O | 19.7 | 10.6 | –
10 | CCCO[C@H]1[C@H](O)[C@H](COS(=O)(=O)c2ccc3ccccc3c2)O[C@@H](Oc2ccc(OP(=O)(O)O)cc2)[C@H]1OC(C)=O [GLYCOMER] | > 50 | > 50 | –
11 | C=CCO[C@@H]1[C@H](O)[C@H](Oc2ccc(I)cc2)O[C@@H](COC(=O)c2ccc3ccccc3c2)[C@H]1O | > 50 | > 50 | –
12 | NC(=O)OCCO[C@@H]1[C@H](O)[C@H](Oc2ccc(I)cc2)O[C@@H](COS(=O)(=O)c2ccc3ccccc3c2)[C@H]1O | 23.1 | 9.1 | –
13 | O=C(Nc1ccccc1)OCCO[C@@H]1[C@H](O)[C@H](Oc2ccc(I)cc2)O[C@@H](COS(=O)(=O)c2ccc3ccccc3c2)[C@H]1O | 3.67 | 5.1 | –
14 | C=CCO[C@H]1[C@H](O)[C@H](COS(=O)(=O)c2ccc3ccccc3c2)O[C@@H](Oc2ccc(I)cc2)[C@H]1OC(C)=O | 11.6 | 5.2 | –
15 | C=CCO[C@H]1[C@@H](O)[C@H](COS(=O)(=O)c2cccc(C(F)(F)F)c2)O[C@@H](Oc2ccc(I)cc2)[C@H]1OC(=O)C(C)C | 4.2 | 3.3 | 30
16 | C=CCO[C@H]1[C@H](O)[C@H](COS(=O)(=O)c2cccs2)O[C@@H](Oc2ccc(I)cc2)[C@H]1OC(C)=O | – | 12.8 | 30
17 | C=CCO[C@@H]1[C@H](O)[C@H](Oc2ccc(I)cc2)O[C@@H](COC(=O)c2ccc(Cl)cc2)[C@H]1O | 25.2 | 20.5 | –
18 | C=CCO[C@H]1[C@H](O)[C@H](COS(=O)(=O)c2cccc(C(F)(F)F)c2)O[C@@H](Oc2ccc(I)cc2)[C@H]1OC(C)=O | 23.1 | 6.1 | –
19 | CCCO[C@H]1[C@H](O)[C@H](COS(=O)(=O)c2cccc(C(F)(F)F)c2)O[C@@H](Oc2ccc(OP(=O)(O)O)cc2)[C@H]1OC(C)=O [GLYCOMER] | 35.5 | 38.8 | –
20 | C=CCO[C@@H]1[C@H](O)[C@H](Oc2ccc(I)cc2)O[C@@H](COS(=O)(=O)c2ccc3ccccc3c2)[C@H]1O | – | 8.81 | –
21 | C=CCO[C@H]1[C@H](O)[C@H](COS(=O)(=O)c2cccc(C(F)(F)F)c2)O[C@@H](Oc2ccc(I)cc2)[C@H]1OC(=O)Cc1ccccc1 | 4.95 | 5.15 | –
22 | C=CCO[C@H]1[C@H](O)[C@H](COS(=O)(=O)c2cccc(C(F)(F)F)c2)O[C@@H](Oc2ccc(I)cc2)[C@H]1OC(=O)c1ccccc1 | 7.5 | 7 | –
